Measured values: US9981946B2, “Pyridine-substituted 2-aminopyridine protein kinase inhibitors” (CHIA TAI TIANQING PHARMACEUTICAL GROUP CO., LTD, priority 2014, dated 2018)

Test system: human non-small cell lung carcinoma NCI-H2228 xenografts
Experiment: Therapeutic effect on NCI-H2228 xenografts in nude mice
Format: in vivo
Conditions: D0-13 once a day; for Average tumor volume D0: D0 baseline at grouping
Protocol: The following experimental method was used: Nude mice was inoculated subcutaneously with human non-small cell lung carcinoma NCI-H2228 cells, the mice were randomly grouped (D0) and administered until the tumor grew to 80-200 mm^3. Measuring the tumor volume, weighing the mice, and recording the data twice a week. Tumor volume (V) was calculated as:
[…], wherein a and b represented length and width respectively.
T/C(%)=(T-T0)/(C-C0)×100, wherein T, C respectively represented the tumor volume at the end of the experiment; T0, C0 respectively represented the tumor volume at the start of the experiment.
When tumor regression was observed, T/C(%)=(T-T0)/T0×100, wherein T was the tumor volume at the end of the experiment; T0 was the tumor volume at the start of the experiment.
In the table: the solvent group (distilled water containing 0.1% Tween-80) was a control group, the compound of the treatment groups was formulated with distilled water containing 0.1% Tween-80.
D0-20 represented administrating once a day from day 0 (D0) for consecutive 21 days; D0-13 represented administrating once a day from day 0 (D0) for consecutive 14 days.
P value was obtained from student's t test compared with the control group.
n was the number of mice, for the control group, the number of test mice n was 12, and n was 6 for the treatment group.

## COc1cc(N2CCNC[C@@H]2C)ncc1-c1cnc(N)c(O[C@H](C)c2c(Cl)ccc(F)c2Cl)c1 [compound of formula I, 5-((R)-1-(2,6-dichloro-3-fluorophenyl)ethoxy)-4′-methoxy-6′-((S)-2-methylpiperazin-1-yl)-3,3′-bipyridin-6-amine]
12.5 mg/kg PO
  Average tumor volume D0: 134.3 mm^3
12.5 mg/kg PO, D21
  % T/C D21: 22%
  Average tumor volume D21: 394.8 mm^3
12.5 mg/kg PO, D21, 100-T/C(%)
  % Inhibition rate D21: 78%
25 mg/kg PO
  Average tumor volume D0: 131.0 mm^3
25 mg/kg PO, D21
  Average tumor volume D21: 21.7 mm^3
25 mg/kg PO, D21, tumor regression, T/C=(T-T0)/T0×100
  % T/C D21: −83%
